In patent US11986487B2, “Mixture of HMOS for treating wheat sensitivity” (GLYCOM A/S, priority 2017, dated 2024):

Tested on: human LS174T cell culture model of goblet cells
Assay: Goblet cell gene expression by quantitative RT-PCR
Format: cell-based
Details: 5 mg HMO/ml, compared to control cultures
Experimental: 2′-FL and LNnT are tested with respect to their ability to induce MUC2, TFF3, EIMβ, CHST5, and GAL3ST2 expression in the human LS174T cell culture model of goblet cells. The human LS174T cell line is obtained from the American Type Culture Collection (ATCC). LS174T cells are maintained in minimum essential medium (MEM) supplemented according to instructions at 37° C. in air containing 5% of CO2. 2′-FL and LNnT are dissolved in cell culture grade water to the required concentration. The LS174T cells are treated with the HMO solution containing 0 or 5 mg HMO/ml. The LS174T cells are collected and suspended in Trizol reagent and total RNA is isolated using an RNA analysis kit (Qiagen) according to the manufacturer's instructions and the RNA isolates are quantified using Nanodrop analysis (Thermo Fisher Scientific). RNA isolates are reverse transcribed using a high capacity cDNA Reverse Transcription Kit (Applied Biosystems) to create cDNA, which is then used to assess gene expression via quantitative RT-PCR. For the quantitative RT-PCR, specific TaqMAN gene expression assays are obtained from Applied Biosystems, which include expression assays for MUC2, TFF3, CHST5 and GAL3ST2. Quantitative real-time PCR is performed using TaqMAN PCR Master Mix (Applied Biosystems). Reactions are run in duplicates in a 384-well plate using an Applied Biosystems 7900HT Fast Real-Time PCR System. The results are analysed using SDS 2.3 software and calculated by delta Ct method. All samples are normalized to Gus-β expression and fold induction is calculated over untreated controls. Gene expression is expressed as fold increase compared to HMO-free control cells. The experiment is repeated three times.

| Compound | expression of CHST5 | expression of GAL3ST2 | expression of the MUC2 gene | expression of the TFF3 gene |
| --- | --- | --- | --- | --- |
| 2′-fucosyllactose [2′-FL] | minimal induction | lack of induction | increases | increases |
| CC(=O)N[C@H]1[C@H](O[C@H]2[C@@H](O)[C@@H](CO)O[C@@H](O[C@H]3[C@H](O)[C@@H](O)C(O)O[C@@H]3CO)[C@@H]2O)O[C@H](CO)[C@@H](O[C@@H]2O[C@H](CO)[C@H](O)[C@H](O)[C@H]2O)[C@@H]1O (mixture of isomers) [LNnT, lacto-N-neotetraose] | minimal induction | lack of induction | increases | increases |
